In patent publication US20090131449A1, “USE OF TRPV1 RECEPTOR ANTAGONISTS FOR TREATING DRY EYE AND OCULAR PAIN” (ALCON RESEARCH, LTD., priority 2007, published 2009):

Legend:
[1] = system: mechanical blink response in normal rats; test: corneal anesthetic activity, blinks induced by mechanical touch (Cochet-Bonnet Esthesiometer); assay type: in vivo, Sprague Dawley rats; conditions: rat; for inhibition of mechanical blink response / topical anesthetic activity (in words): 1% concentration; for Total number of Blinks/Total number of Touches: 20 μl topical ocular, N = 6/group; for Total number of Blinks/Total number of Touches / % Blocked (mechanical blink response): pretreatment 5 min; for % Blocked (mechanical blink response): topical ocular
From the text: Corneal anesthetic effects of TRPV1 antagonists were examined by analyzing suppression of blinks induced by mechanical touch. A Cochet-Bonnet Esthesiometer was used to determine corneal anesthetic activities of the TRPV1 antagonist, AMG-517 (AL-49975), in normal rats. Male Sprague Dawley rats (˜500 g) were divided into groups of 6 each, restrained in a DecapiCone rat restraint, and secured at the posterior with tape. A hole was cut into the cone to expose the right eye. Twenty-four hours prior to the experiment the eyelashes and whiskers were trimmed with scissors. The right eye was dosed with 20 μl of drug or maxidex vehicle, and the timer was set for 5 minutes to allow the rat time to acclimate. The Cochet-Bonnet Esthesiometer fiber was set at 30 mm and perpendicularly touched by a masked observer to the center of the cornea 10 times with a 3 second delay between counts. Blinks were counted with each touch of the fiber, and a total score out of 10 was recorded. If more than one blink occurred in response to a single touch, this event was counted as one blink response.

[2] = system: Formalin-Induced Blink Response in Rats; test: formalin-induced blink response assay (ocular pain); assay type: in vivo, Sprague-Dawley rats; conditions: rat; for Number of Blinks/1 min Mean ± S.D.: 20 μL topical ocular, 0.1% formalin challenge; for Number of Blinks/1 min Mean ± S.D. / % Inhibition of formalin-induced blink response: pretreatment 5 min; for % Inhibition of formalin-induced blink response: topical ocular; for inhibition of formalin-induced blink response (in words): highest concentration tested (1%)
Experimental: The effects of two transient receptor potential vanilloid receptor subfamily, member 1 (TRPV1) antagonists on ocular pain in rats were tested using a formalin-induced blink response assay. Sprague-Dawley rats were treated topical ocular with 20 μL of vehicle (maxidex vehicle), N-{4-[6-(4-trifluoromethyl-phenyl)-pyrimidin-4-yloxy]-benzothiazol-2-yl}-acetamide (AL-49975, also known as AMG-517, Amgen Inc., Thousand Oaks, Calif.), or (R)—N-(4-(6-(4-(1-(4-fluorophenyl)ethyl)piperazin-1-yl)pyrimidin-4-yloxy)benzo[d]thiazol-2-yl)acetamide (AL-49976, also known as AMG-628, Amgen Inc., Thousand Oaks, Calif.) to one eye only. After the appropriate pretreatment time of about 5 minutes, 5 μL of 0.1% formalin was applied topical ocular. Each rat was placed in a clear plastic box, and the number of blinks was counted for 1 minute immediately following the formalin challenge.

[3] = 1% conc., *p < 0.05 Dunnett's t-test

Row | Compound | inhibition of mechanical blink response / topical anesthetic activity (in words) [1] | inhibition of mechanical blink response / topical anesthetic activity (in words) ([1]; listed as AMG-517) | Total number of Blinks/Total number of Touches ([1]; 1%) | % Blocked (mechanical blink response) ([1]; 1%) | Number of Blinks/1 min Mean ± S.D. ([2]; 0.01% conc.) | % Inhibition of formalin-induced blink response ([2]; 0.01% conc.) | Number of Blinks/1 min Mean ± S.D. ([2]; 0.1% conc.) | % Inhibition of formalin-induced blink response ([2]; 0.1% conc.) | Number of Blinks/1 min Mean ± S.D. ([2]; 1% conc.) | % Inhibition of formalin-induced blink response [2, 3] | inhibition of formalin-induced blink response (in words) [2] | Total number of Blinks/Total number of Touches ([1]; 0.5%) | % Blocked (mechanical blink response) ([1]; 0.5%, *p < 0.01 Chi-squared vs. vehicle) | % Blocked (mechanical blink response) ([1]; 0.5%, *p < 0.01 Chi-squared vs. vehicle, listed as proparacaine)
1 | CC(=O)Nc1nc2c(Oc3cc(-c4ccc(C(F)(F)F)cc4)ncn3)cccc2s1 [AL-49975, N-{4-[6-(4-trifluoromethyl-phenyl)-pyrimidin-4-yloxy]-benzothiazol-2-yl}-acetamide] | did not significantly inhibit the blink response | did not have topical anesthetic activity | 54/60 | 10% | 58 ± 11 Blinks/1 min | 20% | 51 ± 18 Blinks/1 min | 29% | 44 ± 17 Blinks/1 min | 39* % | dose-dependent fashion, achieving significant inhibition |  |  | 
2 | CC(=O)Nc1nc2c(Oc3cc(N4CCN([C@H](C)c5ccc(F)cc5)CC4)ncn3)cccc2s1 [AL-49976, (R)—N-(4-(6-(4-(1-(4-fluorophenyl)ethyl)piperazin-1-yl)pyrimidin-4-yloxy)benzo[d]thiazol-2-yl)acetamide] |  |  |  |  | 58 ± 7 Blinks/1 min | 19% | 66 ± 23 Blinks/1 min | 9% | 47 ± 11 Blinks/1 min | 35* % | significantly inhibited the pain response |  |  | 
3 | CCCOc1ccc(C(=O)OCCN(CC)CC)cc1N [Alcaine, proparacaine, reference compound] |  |  |  |  |  |  |  |  |  |  |  | 2/60 | 97* % | 95%
